Columns and labels:
[1] = tested on: greenhouse red spider mite (Tetranychus urticae); assay: Tetranychus test (OP-resistant/dip treatment); assay type: in vivo; conditions: 1000 ppm, infested bean plants (Phaseolus vulgaris) dipped, OP-resistant mites
Procedure: Tetranychus Test (OP Resistant/Dip Treatment)
To produce a suitable preparation of active compound, 1 part by weight of active compound is mixed with the stated amount of solvent and the stated amount of emulsifier, and the concentrate is diluted with emulsifier-containing water to the desired concentration.
Bean plants (Phaseolus vulgaris) which are heavily infested by all stages of the greenhouse red spider mite (Tetranychus urticae) are dipped into a solution of the active compound at the desired concentration.
After the desired period of time, the effect in % in determined. 100% means that all spider mites have been killed; 0% means that none of the spider mites have been killed.

Myzus persicae = assay: Myzus test; assay type: in vivo; conditions: 100 ppm, infested cabbage leaves (Brassica oleracea) dipped
Procedure: (§1) To produce a suitable preparation of active compound, 1 part by weight of active compound is mixed with the stated amounts of solvent and of emulsifier, and the concentrate is diluted with emulsifier—containing water to the desired concentration.
Cabbage leaves (Brassica oleracea) which are heavily infested by Myzus persicae are dipped into a preparation of active compound of the desired concentration.
After the desired period of time, the kill in % is determined. 100% means that all aphids have been killed; (0)% means that none of the aphids nave been killed.

[2] = tested on: larvae of Phaedon cochleariae; assay: Phaedon larvae test; assay type: in vivo; conditions: 1000 ppm, cabbage leaves (Brassica oleracea) dipped, infested with larvae
Procedure: as §1
Cabbage leaves (Brassica oleracea) are treated by being dipped into the preparation of active compound of the desired concentration and are infested with larvae of Phaedon cochleariae while the leaves are still moist.
After the desired period of time, the kill in % is determined. 100% means that all beetle larvae have been killed; 0% means that no beetle larvae have been killed.

Meloidogyne incognita = Meloidogyne incognita test; assay type: in vivo; conditions: 20 ppm; sand with egg-larvae suspension and lettuce seeds; nematocidal activity from gall formation, 100% = no galls
Procedure: To produce a suitable preparation of active compound, 1 part by weight of active compound is mixed with the stated amounts of solvent and of emulsifier, and the concentrate is diluted with water to the desired concentration.
Containers are filled with sand, preparation of active compound, a suspension of egg-larvae of Meloidogyne incognita and with lettuce seeds. The lettuce seeds germinate and the plants are allowed to grow. Galls are formed on the roots.
After the desird period of time, the nematocidal activity is determined on basis of the formation of galls and is calculated in %.
An activity of 100% means that no galls have been found, an activity of 0% means that the number of the galls at the treated plants corresponds to the number of galls in the untreated control plants.

[3] = tested on: Erysiphe graminis f. sp.hordei; assay: Erysiphe test (barley)/induction of resistance; assay type: in vivo; conditions: young barley plants sprayed at 750 g/ha; inoculated 4 days after treatment; evaluated 7 days after inoculation; 100% = no disease
Procedure: Erysiphe Test (Barley)/Induction of Resistance
To produce a suitable preparation of active compound, 1 part by weight of active compound is mixed with the stated amount of solvent, and the concentrate is diluted with water and the stated amount of emulsifier to the desired concentration.
To test for resistance-inducing activity, young barley plants are sprayed with the preparation of active compound at the stated rate of application. 4 days after the treatment, the plants are inoculated with an aqueous spore suspension of Erysiphe graminis f. sp.hordei. The plants are subsequently placed in a greenhouse at 70% relative atmospheric humidity and 18° C.
The test is evaluated 7 days after the inoculation. 0% means an efficacy which corresponds to that of the control while an efficacy of 100% means that no disease is observed.

[4] = tested on: green rice leaf hopper (Nephotettix cincticeps); assay: Nephotettix test; assay type: in vivo; conditions: 1000 ppm, rice seedlings (Oryza sativa) dipped, infested with larvae
Procedure: To produce a suitable preparation of active compound, 1 part by weight of active compound is mixed with the stated amount of solvent and the stated amount of emulsifier, and the concentrate is diluted with water to the desired concentration.
Rice seedlings (Oryza sativa) are treated by being dipped into the preparation of active compound of the desired concentration and are infested with larvae of the green rice leaf hopper (Nephotettix cincticeps) while the seedlings are still moist.
After the desired period of time, the kill in % is detemruned. 100% means that all leaf hoppers have been killed; 0% means that none of the leaf hoppers have been killed.

Structure (SMILES) | Efficacy in % [3] [%] | other results
COC(=O)C1C2C=CC(O2)C1C(=O)OC (centres unmarked) |  | kill in % after 7 days [1]: 90%
O=C(O)C1C2C=CC(O2)C1C(=O)O (centres unmarked) |  | Kill in % after 6 days (Myzus persicae): 80%
O=C(O)C1C2CCC(O2)C1C(=O)O (centres unmarked) |  | kill in % after 7 days [2]: 100%
CC(CNC(=O)C1C2CCC(O2)C1C(=O)O)c1ccccc1 (centres unmarked) |  | kill in % (Meloidogyne incognita): 100%
Cc1cc(C)c(NC(=O)C2C3CCC(C)(O3)C2C(=O)O)c(C)c1 (centres unmarked) |  | melting point: 168 °C
O=C(O)C1C2C=CC(O2)C1C(=O)NCCCc1ccccc1 (centres unmarked) | 70 | 
O=C(O)C1C2C=CC(O2)C1C(=O)Nc1cccc(Cl)c1 (centres unmarked) | 70 | 
O=C(O)C1C2C=CC(O2)C1C(=O)NCc1cc(Cl)nc(Cl)c1 (centres unmarked) | 70 | 
CC(C)(CNC(=O)C1C2C=CC(O2)C1C(=O)O)n1cncn1 (centres unmarked) | 70 | 
COc1ccccc1NC(=O)C1C2CCC(O2)C1C(=O)O (centres unmarked) | 70 | 
O=C(O)C1C2CCC(O2)C1C(=O)NCCc1ccccc1 (centres unmarked) | 90 | 
CC(Cc1ccccc1)NC(=O)C1C2CCC(O2)C1C(=O)O (centres unmarked) | 80 | 
CCOC(=O)C1C2C=CC(O2)C1C(=O)Sc1ccccc1NC(N)=O (centres unmarked) |  | Kill in % after 6 days [4]: 100%
O=C(O)[C@@H]1C2CCC(O2)[C@@H]1C(=O)O |  | Kill in % after 6 days [4]: 100%

Reference: US20040053996A1, “Use of oxabicyclo[2.2.1]heptane derivatives as pesticidal agents” (priority 2000, published 2004)
